Tests used:
[1] = target: T1, OAT3 (Homo sapiens, UniProt Q8TCC7); assay: OAT3 inhibition with 30 min preincubation, fluorescein
T1 sequence (Q8TCC7 1-542): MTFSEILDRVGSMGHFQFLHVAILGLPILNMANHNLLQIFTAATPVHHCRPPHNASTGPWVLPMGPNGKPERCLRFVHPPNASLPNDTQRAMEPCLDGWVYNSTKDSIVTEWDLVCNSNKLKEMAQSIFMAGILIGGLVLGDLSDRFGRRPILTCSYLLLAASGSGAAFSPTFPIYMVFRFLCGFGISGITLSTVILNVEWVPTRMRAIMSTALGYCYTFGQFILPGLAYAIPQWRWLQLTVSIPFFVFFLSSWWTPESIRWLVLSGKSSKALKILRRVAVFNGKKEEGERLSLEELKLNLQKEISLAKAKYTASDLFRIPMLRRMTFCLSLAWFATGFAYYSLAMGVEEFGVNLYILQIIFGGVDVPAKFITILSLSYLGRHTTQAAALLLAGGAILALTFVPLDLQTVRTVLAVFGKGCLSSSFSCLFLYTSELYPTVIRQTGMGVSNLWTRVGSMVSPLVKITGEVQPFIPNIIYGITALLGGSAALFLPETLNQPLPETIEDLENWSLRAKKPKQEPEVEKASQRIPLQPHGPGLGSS
Description: In the OATP inhibition assays, inhibitors in warm TP‐buffer were directly applied to cells after media removal, followed by a 30‐min preincubation step in the presence of inhibitors. No preincubation step was included in the OAT inhibition assays. The inhibition assays were conducted as described above, except that inhibitors were included in the substrate solution. The rosuvastatin concentration was 2.5 μM in the OATP inhibition assays, and the transport assays were conducted for 2 min [24]. For the inhibition studies of OAT1 and OAT3, 5 μM fluorescein was assayed within 5 min, while 34 nM methotrexate within a 10 min assay was employed as the substrate for OAT2 and OAT4 [25, 26, 27, 28]. OAT1 and OAT3 cells were lysed with 200 μL of 1 M sodium hydroxide for 10 min, and 150 μL of these samples were transferred to a black well plate for fluorescein quantification. OAT2 and OAT4 cells were lysed with 200 μL of 0.1% Triton‐X100 for 10 min, and 150 μL of the samples were mixed with 4 mL of scintillation cocktail (Opti‐Fluor from PerkinElmer, Waltham, MA, USA). Each inhibition assay included a vehicle control without an inhibitor.
Cells were pre-incubated with the inhibitors and
vehicle for 30 min before the assay was initiated with fresh solutions of inhibitors and substrate.
The uptake into control cells was subtracted from the uptak e into OAT3-expressing cells for […]

[2] = target: T2, OATP2B1 (Homo sapiens, UniProt O94956); assay: OATP2B1 inhibition, rosuvastatin uptake into transporter-expressing HEK293 cells; type: cell-based; settings: for Calculated R-value OATP2B1 (hepatic): R = 1 + (I in,max,u/IC50), FDA cut-off ≥ 1.1; for Calculated R-value OATP2B1 (intestinal): R = I gut/IC50, FDA cut-off ≥ 10
T2 construct: expressed in transfected cells; host or cells: HEK293 (recombinant baculovirus-mediated transduction)
T2 sequence (O94956 1-709): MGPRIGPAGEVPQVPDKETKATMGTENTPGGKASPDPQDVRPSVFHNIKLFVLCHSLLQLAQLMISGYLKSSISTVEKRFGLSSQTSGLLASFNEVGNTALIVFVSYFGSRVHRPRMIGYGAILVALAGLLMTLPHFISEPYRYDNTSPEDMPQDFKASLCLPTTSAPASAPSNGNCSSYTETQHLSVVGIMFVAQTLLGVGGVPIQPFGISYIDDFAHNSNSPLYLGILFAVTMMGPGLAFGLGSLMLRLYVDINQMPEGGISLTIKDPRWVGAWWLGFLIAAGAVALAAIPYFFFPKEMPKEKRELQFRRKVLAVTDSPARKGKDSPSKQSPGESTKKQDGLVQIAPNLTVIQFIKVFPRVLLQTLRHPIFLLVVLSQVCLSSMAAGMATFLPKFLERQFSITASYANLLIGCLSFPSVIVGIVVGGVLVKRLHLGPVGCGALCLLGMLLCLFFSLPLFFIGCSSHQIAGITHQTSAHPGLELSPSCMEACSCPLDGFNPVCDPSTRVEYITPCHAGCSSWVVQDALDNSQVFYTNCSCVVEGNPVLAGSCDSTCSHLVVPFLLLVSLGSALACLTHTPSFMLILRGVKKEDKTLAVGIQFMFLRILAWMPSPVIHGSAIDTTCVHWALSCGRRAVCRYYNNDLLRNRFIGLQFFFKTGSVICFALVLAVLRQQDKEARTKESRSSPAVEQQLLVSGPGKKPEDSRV
Description: The human transporters OATP1B1, OATP1B3, OATP2B1, and OAT1‐OAT4 and a negative control protein (enhanced yellow fluorescent protein, eYFP) were transiently expressed in human embryonic kidney 293 (HEK293) cells by recombinant baculovirus‐mediated transduction. Baculoviruses carrying human genes for the transporters were prepared as reported previously. HEK293 cells were cultured in DMEM containing 10% fetal bovine serum at 37°C and 5% CO2 and passaged two to three times per week. For the transport studies, 0.05 × 10^6 cells for 48‐well plates (OATPs) or 0.06 × 10^6 cells for 24‐well plates (OATs) were seeded onto cell‐culture treated well plates coated with poly‐D‐lysine. After 1 day, cells were transduced to produce recombinant proteins by changing media to DMEM containing 30 μL (48‐well plates) or 60 μL (24‐well plates) of recombinant baculovirus and 3 mM (OATs) or 5 mM (OATPs) sodium butyrate in a total media volume of 500 μL. The cells were cultured for a further 2 days before the transport assays.
For the transport studies, media were removed and cells were washed once with warm transport uptake buffer (TP‐buffer—pH 7.4 HBSS with 25 mM HEPES and 4 mM sodium bicarbonate). Each experiment included triplicate (OATP) or duplicate (OAT) samples for every test condition. The uptake was started by removing liquid from wells and applying warm TP‐buffer (200 μL for 24‐well plates or 125 μL for 48‐well plates) containing a test compound to cells. Transport assays were terminated after a pre‐specified incubation time (reported in figure legends) by removing substrate solution and washing cells three times with cold TP‐buffer (300 μL for 48‐well plates and 400 μL for 24‐well plates). For the liquid chromatography mass spectrometry (LC–MS) analysis, compounds were extracted from cells with 125 μL (48‐well plates) or 250 μL (24‐well plates) of an ultrapure‐water solution containing 75% methanol and 0.1% formic acid, shaking at 250 RPM for 30 min. […] Samples were transferred to well plates, centrifuged at 3000 g for 30 min, and transferred to a new well plate for the analysis.
In the OATP inhibition assays, inhibitors in warm TP‐buffer were directly applied to cells after media removal, followed by a 30‐min preincubation step in the presence of inhibitors. […] OAT1 and OAT3 cells were lysed with 200 μL of 1 M sodium hydroxide for 10 min, and 150 μL of these samples were transferred to a black well plate for fluorescein quantification. […]
For the inhibition data analysis, the average of measured concentrations in the control cells was subtracted from the average of measured concentrations in transporter‐expressing cells for each inhibitor concentration and then normalized to the vehicle sample that represents 100% transport activity. […]

IC50 [1] [µM] | Calculated R-value OATP2B1 (hepatic) [2] | Calculated R-value OATP2B1 (intestinal) [2] | Compound
18.3 | 1.2 | 240 | Cc1onc(-c2c(Cl)cccc2Cl)c1C(=O)N[C@@H]1C(=O)N2[C@@H]1SC(C)(C)[C@@H]2C(=O)O [Dicloxacillin]
30.1 | 1.2 | 137 | Cc1onc(-c2c(F)cccc2Cl)c1C(=O)N[C@@H]1C(=O)N2[C@@H]1SC(C)(C)[C@@H]2C(=O)O [Flucloxacillin]
